Laboratory results as given in patent US20250170104A1, “INHIBITORS OF PSEUDOMONAS AERUGINOSA VIRULENCE FACTOR Lasß” (priority 2022, published 2025).

Biological target: LasB (Pseudomonas aeruginosa (strain ATCC 15692 / DSM 22644 / CIP 104116 / JCM 14847 / LMG 12228 / 1C / PRS 101 / PAO1), UniProt P14756)
Assay: In vitro LasB activity assay (fluorogenic substrate)
Format: biochemical
Conditions: LasB 0.3 nM, substrate 150 μM, mean ± SD
Procedure: The LasB activity assay was performed as described previously (Nishino N, Powers J C. Pseudomonas aeruginosa elastase. Development of a new substrate, inhibitors, and an affinity ligand. J Biol Chem. 1980 Apr. 25; 255(8):3482-6) using the fluorogenic substrate 2-Aminobenzoyl-L-Alanyl-Glycyl-L-Leucyl-L-Alanyl-para-Nitro-Benzyl-Amide, purchased from Peptides International (Louisville, KY, USA) and vivitide, LLC (Gardner, MA, USA).
Fluorescence intensity was measured for 60 min at 37° C. in black 384-well microtiter plates (Greiner BioOne, Kremsmünster, Austria) using a CLARIOstar microplate reader (BMG Labtech, Ortenberg, Germany) with an excitation wavelength of […] and an emission wavelength of 415±20 nm. The assay was performed in a final volume of 50 μL of assay buffer (50 mM Tris, pH 7.2, 2.5 mM CaCl2), 0.075% Pluronic F-127, 5% DMSO) containing LasB at a final concentration of […] 0.3 nM and the substrate at 150 μM. Before substrate addition, compounds were preincubated with the enzyme at 37° C. for 15 min. Experiments were performed in duplicates and repeated for at least two times. Blank controls without enzyme were performed. After blank subtraction, the slope of samples containing inhibitors (v) was divided by the slope of a simultaneously started uninhibited enzymatic reaction (v0). IC50 values were determined with nonlinear regression using GraphPad Prism 5 (Graph Pad Software, San Diego, CA, USA) and are given as mean values ±standard deviation (SD). The slope factor was constrained to 1.

Sequence of LasB (P14756 198-498): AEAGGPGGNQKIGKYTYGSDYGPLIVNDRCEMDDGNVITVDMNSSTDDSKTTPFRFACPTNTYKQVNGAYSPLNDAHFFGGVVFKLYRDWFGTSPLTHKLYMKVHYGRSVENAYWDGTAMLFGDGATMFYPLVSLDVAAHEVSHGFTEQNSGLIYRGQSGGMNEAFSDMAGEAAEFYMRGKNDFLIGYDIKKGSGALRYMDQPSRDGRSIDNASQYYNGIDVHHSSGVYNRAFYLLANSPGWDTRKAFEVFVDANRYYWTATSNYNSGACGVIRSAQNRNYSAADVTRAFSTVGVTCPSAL

SMILES | IC50
CC(C)CC(C(=O)NO)C(=O)Nc1ccc(Cn2cc(CNC(=O)c3ccc(I)cc3)nn2)cc1 (stereo not shown) [Compound 132, N-[[1-[[4-[[2-(Hydroxycarbamoyl)-4-methyl-pentanoyl]amino]phenyl]methyl]triazol-4-yl]methyl]-4-iodo-benzamide] | 22.8 ± 0.1 nM
CC(C)CC(C(=O)NO)C(=O)Nc1ccc(Cn2cc(CNC(=O)OC(C)(C)C)nn2)cc1 (stereo not shown) [Compound 133, Tert-butyl N-[[1-[[4-[[2-(hydroxycarbamoyl)-4-methyl-pentanoyl]amino]phenyl]methyl]triazol-4-yl]methyl]carbamate] | 9.8 ± 0.4 nM
CC(C)CC(C(=O)NO)C(=O)Nc1ccc(Cn2cc(CNc3ccc(I)cc3)nn2)cc1 (stereo not shown) [Compound 134, 2-(Hydroxycarbamoyl)-N-[4-[[4-[(4-iodoanilino)methyl]triazol-1-yl]methyl]phenyl]-4-methyl-pentanamide] | 8.4 ± 0.5 nM
CC(C)CC(C(=O)NO)C(=O)Nc1ccc(Cn2cc(COc3ccc(Cl)cc3)nn2)cc1 (stereo not shown) [Compound 135, N-[4-[[4-[(4-Chlorophenoxy)methyl]triazol-1-yl]methyl]phenyl]-2-(hydroxycarbamoyl)-4-methyl-pentanamide] | 9.8 ± 0.3 nM
CC(C)CC(C(=O)NO)C(=O)Nc1ccc(Cn2cc(Cc3ccc(Cl)cc3)nn2)cc1 (stereo not shown) [Compound 137, N-[4-[[4-[(4-Chlorophenyl)methyl]triazol-1-yl]methyl]phenyl]-2-(hydroxycarbamoyl)-4-methyl-pentanamide] | 16.9 ± 1.3 nM
CC(C)CC(C(=O)NO)C(=O)Nc1ccc(Cn2cc(-c3ccc(I)cc3)nn2)cc1 (stereo not shown) [Compound 138, 2-(Hydroxycarbamoyl)-N-[4-[[4-(4-iodophenyl)triazol-1-yl]methyl]phenyl]-4-methyl-pentanamide] | 37.8 ± 2.9 nM
CC(C)CC(C(=O)NO)C(=O)Nc1ccc(Cn2cc(CN3C(=O)c4ccccc4S3(=O)=O)nn2)cc1 (stereo not shown) [Compound 139, 2-(Hydroxycarbamoyl)-4-methyl-N-[4-[[4-[(1,1,3-trioxo-1,2-benzothiazol-2-yl)methyl]triazol-1-yl]methyl]phenyl]pentanamide] | 19.3 ± 0.6 nM
CC(C)CC(C(=O)NO)C(=O)Nc1ccc(Cn2cc(CN)nn2)cc1 (stereo not shown) [Compound 140, N-[4-[[4-(Aminomethyl)triazol-1-yl]methyl]phenyl]-2-(hydroxycarbamoyl)-4-methyl-pentanamide] | 55.9 ± 2.3 nM
CC(C)CC(C(=O)NO)C(=O)Nc1ccc(Cn2cc(CNS(=O)(=O)c3ccccc3Cl)nn2)cc1 (stereo not shown) [Compound 163, N-[4-[[4-[[(2-Chlorophenyl)sulfonylamino]methyl]triazol-1-yl]methyl]phenyl]-2-(hydroxycarbamoyl)-4-methyl-pentanamide] | 4.3 ± 0.1 nM
CC(C)CC(C(=O)NO)C(=O)Nc1ccc(Cn2cc(CNS(=O)(=O)c3cccc(Cl)c3)nn2)cc1 (stereo not shown) [Compound 164, N-[4-[[4-[[(3-Chlorophenyl)sulfonylamino]methyl]triazol-1-yl]methyl]phenyl]-2-(hydroxycarbamoyl)-4-methyl-pentanamide] | 2.4 ± 0.1 nM
CC(C)CC(C(=O)NO)C(=O)Nc1ccc(Cn2cc(CNS(=O)(=O)Cc3ccc(Cl)cc3)nn2)cc1 (stereo not shown) [Compound 166, N-[4-[[4-[[(4-Chlorophenyl)methylsulfonylamino]methyl]triazol-1-yl]methyl]phenyl]-2-(hydroxycarbamoyl)-4-methyl-pentanamide] | 5.2 ± 0.3 nM
CC(C)CC(C(=O)NO)C(=O)Nc1ccc(Cn2cc(CNS(=O)(=O)c3ccccc3)nn2)cc1 (stereo not shown) [Compound 167, N-[4-[[4-(Benzenesulfonamidomethyl)triazol-1-yl]methyl]phenyl]-2-(hydroxycarbamoyl)-4-methyl-pentanamide] | 5.5 ± 0.3 nM
CC(C)CC(C(=O)NO)C(=O)Nc1ccc(Cn2cc(CNS(=O)(=O)C3CCCCC3)nn2)cc1 (stereo not shown) [Compound 168, N-[4-[[4-[(Cyclohexylsulfonylamino)methyl]triazol-1-yl]methyl]phenyl]-2-(hydroxycarbamoyl)-4-methyl-pentanamide] | 2.7 ± 0.2 nM
O=C(NO)C(Cc1ccccc1)C(=O)Nc1ccc(Cn2cc(CNS(=O)(=O)c3ccc(I)cc3)nn2)cc1 (stereo not shown) [Compound 179, 2-Benzyl-3-(hydroxyamino)-N-[4-[[4-[[(4-iodophenyl)sulfonylamino]methyl]triazol-1-yl]methyl]phenyl]-3-oxo-propanamide] | 1 ± 0.6 nM
O=C(NO)C(CC1CC1)C(=O)Nc1ccc(Cn2cc(CNS(=O)(=O)c3ccc(I)cc3)nn2)cc1 (stereo not shown) [Compound 183, 2-(Cyclopropylmethyl)-3-(hydroxyamino)-N-[4-[[4-[[(4-iodophenyl)sulfonylamino]methyl]triazol-1-yl]methyl]phenyl]-3-oxo-propanamide] | 9.9 ± 0.3 nM
CC(C)CC(C(=O)NO)C(=O)Nc1ccc(Cn2nncc2CNC(=O)OC(C)(C)C)cc1 (stereo not shown) [Compound 185, tert-butyl N-[[3-[[4-[[2-(hydroxycarbamoyl)-4-methyl-pentanoyl]amino]phenyl]methyl]triazol-4-yl]methyl]carbamate] | 6.5 ± 0.2 nM
CC(C)CC(C(=O)NO)C(=O)Nc1ccc(Cn2nncc2CNS(=O)(=O)c2ccc(I)cc2)cc1 (stereo not shown) [Compound 190, 2-(Hydroxycarbamoyl)-N-[4-[[5-[[(4-iodophenyl)sulfonylamino]methyl]triazol-1-yl]methyl]phenyl]-4-methyl-pentanamide] | 7.8 ± 0.1 nM
CC(C)CC(C(=O)NO)C(=O)Nc1ccc(Cn2nncc2CNS(=O)(=O)c2ccc(F)cc2)cc1 (stereo not shown) [Compound 191, N-[4-[[5-[[(4-Fluorophenyl)sulfonylamino]methyl]triazol-1-yl]methyl]phenyl]-2-(hydroxycarbamoyl)-4-methyl-pentanamide] | 7.9 ± 0.1 nM
CC(C)CC(C(=O)NO)C(=O)Nc1ccc(Cn2nncc2CNS(=O)(=O)CC(C)C)cc1 (stereo not shown) [Compound 192, 2-(Hydroxycarbamoyl)-N-[4-[[5-[(isobutylsulfonylamino)methyl]triazol-1-yl]methyl]phenyl]-4-methyl-pentanamide] | 6.8 ± 0.1 nM
CC(=O)c1ccc(S(=O)(=O)NCc2cn(Cc3ccc(NC(=O)C(CC(C)C)C(=O)NO)cc3)nn2)cc1 (stereo not shown) [Compound 203, N-[4-[[4-[[(4-acetylphenyl)sulfonylamino]methyl]triazol-1-yl]methyl]phenyl]-2-(hydroxycarbamoyl)-4-methyl-pentanamide] | 7.9 ± 0.2 nM
COC(=O)c1ccc(S(=O)(=O)NCc2cn(Cc3ccc(NC(=O)C(CC(C)C)C(=O)NO)cc3)nn2)cc1 (stereo not shown) [Compound 204, methyl 4-[[1-[[4-[[2-(hydroxycarbamoyl)-4-methyl-pentanoyl]amino]phenyl]methyl]triazol-4-yl]methylsulfamoyl]benzoate] | 13 ± 0.4 nM
COCCOc1ccc(S(=O)(=O)NCc2cn(Cc3ccc(NC(=O)C(CC(C)C)C(=O)NO)cc3)nn2)cc1 (stereo not shown) [Compound 205, 2-(hydroxycarbamoyl)-N-[4-[[4-[[[4-(2-methoxyethoxy)phenyl]sulfonylamino]methyl]triazol-1-yl]methyl]phenyl]-4-methyl-pentanamide] | 29.5 ± 0.7 nM
CC(C)CC(C(=O)NO)C(=O)Nc1ccc(Cn2cc(CNS(=O)(=O)c3ccc(OC(C)C)cc3)nn2)cc1 (stereo not shown) [Compound 206, 2-(hydroxycarbamoyl)-N-[4-[[4-[[(4-isopropoxyphenyl)sulfonylamino]methyl]triazol-1-yl]methyl]phenyl]-4-methyl-pentanamide] | 7.8 ± 0.3 nM
CC(C)CC(C(=O)NO)C(=O)Nc1ccc(Cn2cc(CNS(=O)(=O)c3ccc(C(C)C)cc3)nn2)cc1 (stereo not shown) [Compound 207, 2-(hydroxycarbamoyl)-N-[4-[[4-[[(4-isopropylphenyl)sulfonylamino]methyl]triazol-1-yl]methyl]phenyl]-4-methyl-pentanamide] | 3.1 ± 0.1 nM
CC(C)CC(C(=O)NO)C(=O)Nc1ccc(Cn2cc(CNS(=O)(=O)c3ccc(NC(=O)OC(C)(C)C)cc3)nn2)cc1 (stereo not shown) [Compound 208, tert-butyl N-[4-[[1-[[4-[[2-(hydroxycarbamoyl)-4-methyl-pentanoyl]amino]phenyl]methyl]triazol-4-yl]methylsulfamoyl]phenyl]carbamate] | 4.2 ± 0.2 nM
CC(C)CC(C(=O)NO)C(=O)Nc1ccc(Cn2cc(CNS(=O)(=O)c3ccc(N)cc3)nn2)cc1 (stereo not shown) [Compound 210, N-[4-[[4-[[(4-aminophenyl)sulfonylamino]methyl]triazol-1-yl]methyl]phenyl]-2-(hydroxycarbamoyl)-4-methyl-pentanamide] | 7.7 ± 0.2 nM
CC(C)CCC(C(=O)NO)C(=O)Nc1ccc(Cn2cc(CNS(=O)(=O)c3ccc(I)cc3)nn2)cc1 (stereo not shown) [Compound 215, 2-(hydroxycarbamoyl)-N-[4-[[4-[[(4-iodophenyl)sulfonylamino]methyl]triazol-1-yl]methyl]phenyl]-5-methyl-hexanamide] | 48.5 ± 1.4 nM
CC(C(=O)NO)C(=O)Nc1ccc(Cn2cc(CNS(=O)(=O)c3ccc(I)cc3)nn2)cc1 (stereo not shown) [Compound 217, 3-(hydroxyamino)-N-[4-[[4-[[(4-iodophenyl)sulfonylamino]methyl]triazol-1-yl]methyl]phenyl]-2-methyl-3-oxo-propanamide] | 278 ± 9.7 nM
